From patent US8003649B2 (AstraZeneca AB, priority 2007, dated 2011)

biological target: T1, Androgen Receptor (AR) (Homo sapiens, UniProt P10275, T878A); experiment: LNCaP Androgen Receptor Down-regulation Cell Assay (immunofluorescence end point); assay type: cell-based; settings: LNCaP prostate carcinoma cells, compound incubation 20-22 hours, 50% reduction of the AR signal; read-out: Androgen Receptor Down-regulation Assay (a) IC50/μM
T1 construct: cell based immuno-fluorescence assay using the LNCaP prostate epithelial cell line; endogenous in cells; host or cells: LNCaP clone FGC (ATCC CRL-1740)
T1 sequence (P10275 1-920 T878A): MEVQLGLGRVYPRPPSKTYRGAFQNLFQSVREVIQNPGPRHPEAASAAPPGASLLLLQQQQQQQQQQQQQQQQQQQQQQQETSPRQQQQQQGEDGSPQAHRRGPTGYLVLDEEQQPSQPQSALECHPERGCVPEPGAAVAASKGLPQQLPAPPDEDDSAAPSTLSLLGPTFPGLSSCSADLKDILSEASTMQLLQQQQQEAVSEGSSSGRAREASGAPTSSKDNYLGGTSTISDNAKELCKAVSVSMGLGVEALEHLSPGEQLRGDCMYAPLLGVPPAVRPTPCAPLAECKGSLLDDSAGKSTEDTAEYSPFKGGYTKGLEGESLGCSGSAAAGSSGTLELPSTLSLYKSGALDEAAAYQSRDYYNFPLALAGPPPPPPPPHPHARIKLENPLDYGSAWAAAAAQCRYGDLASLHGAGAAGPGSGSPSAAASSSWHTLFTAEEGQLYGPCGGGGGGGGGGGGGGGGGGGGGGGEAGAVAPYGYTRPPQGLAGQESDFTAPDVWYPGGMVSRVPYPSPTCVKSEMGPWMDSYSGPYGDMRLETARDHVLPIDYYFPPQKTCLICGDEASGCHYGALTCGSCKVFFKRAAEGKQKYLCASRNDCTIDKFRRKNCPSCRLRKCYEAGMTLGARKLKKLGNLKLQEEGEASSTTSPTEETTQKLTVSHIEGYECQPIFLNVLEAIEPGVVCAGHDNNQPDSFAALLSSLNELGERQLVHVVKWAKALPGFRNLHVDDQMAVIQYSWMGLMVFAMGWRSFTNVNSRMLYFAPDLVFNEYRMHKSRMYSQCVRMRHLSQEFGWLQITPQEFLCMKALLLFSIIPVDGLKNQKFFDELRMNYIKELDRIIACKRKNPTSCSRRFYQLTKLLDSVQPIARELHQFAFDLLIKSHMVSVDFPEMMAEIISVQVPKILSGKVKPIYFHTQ
How it was run: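 LNCaP cells in medium with 5% charcoal-stripped FBS were plated overnight, then treated with a compound dilution series for 20-22 h at 37° C. After fixation, permeabilisation and immunostaining, AR-associated green fluorescence was quantified by laser-scanning microplate cytometry; AR down-regulation expressed as IC50 from fitted dose-response curves.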

| SMILES | DC50 |
| --- | --- |
| CC(C)(C)OC(=O)N1CC2CN(c3ccc4nnc(C(F)(F)F)n4n3)CC2C1 (stereo not drawn) [Example 211, tert-butyl 5-(3-(trifluoromethyl)-[1,2,4]triazolo[4,3-b]pyridazin-6-yl)hexahydropyrrolo[3,4-c]pyrrole-2(1H)-carboxylate] | 8.2 µM |
| Nc1ccc(CN2CCN(c3ccc4nnc(C(F)(F)F)n4n3)CC2)cc1 [Example 212, 4-((4-(3-(trifluoromethyl)-[1,2,4]triazolo[4,3-b]pyridazin-6-yl)piperazin-1-yl)methyl)aniline] | 3.7 µM |
| O=C(Nc1ccc(F)cc1)N1CC2CN(c3ccc4nnc(C(F)(F)F)n4n3)CC2C1 (stereo not drawn) [Example 213, N-(4-fluorophenyl)-2-[3-(trifluoromethyl)-[1,2,4]triazolo[3,4-f]pyridazin-6-yl]-1,3,3a,4,6,6a-hexahydropyrrolo[3,4-c]pyrrole-5-carboxamide] | 4.5 µM |
| CCS(=O)(=O)N1CC2CN(c3ccc4nnc(C(F)(F)F)n4n3)CC2C1 (stereo not drawn) [Example 215, 6-(5-ethylsulfonyl-1,3,3a,4,6,6a-hexahydropyrrolo[3,4-c]pyrrol-2-yl)-3-(trifluoromethyl)-[1,2,4]triazolo[3,4-f]pyridazine] | 7.4 µM |
| C[C@@H]1CN(Cc2ccccc2)[C@@H](C)CN1c1ccc2nnc(C(F)(F)F)n2n1 [Example 216, 6-[(2R,5S)-4-benzyl-2,5-dimethylpiperazin-1-yl]-3-(trifluoromethyl)[1,2,4]triazolo[4,3-b]pyridazine] | 6.8 µM |
| C[C@@H]1CN(Cc2cccnc2)[C@@H](C)CN1c1ccc2nnc(C(F)(F)F)n2n1 [Example 217, 6-[(2R,5S)-2,5-dimethyl-4-(pyridin-3-ylmethyl)piperazin-1-yl]-3-(trifluoromethyl)[1,2,4]triazolo[4,3-b]pyridazine] | 3.7 µM |
| CC1CN(c2ccc3nnc(C(F)(F)F)n3n2)C(C)CN1Cc1ccc(C#N)cc1 (stereo not drawn) [Example 218] | > 7.3 µM |
| CC1CN(c2ccc3nnc(C(F)(F)F)n3n2)C(C)CN1Cc1cc(F)cc(F)c1 (stereo not drawn) [Example 220] | 3.6 µM |
| C[C@@H]1CN(c2ccc3nnc(C(F)(F)F)n3n2)[C@@H](C)CN1Cc1cccnc1 [Example 223, 6-[(2S,5R)-2,5-dimethyl-4-(pyridin-3-ylmethyl)piperazin-1-yl]-3-(trifluoromethyl)[1,2,4]triazolo[4,3-b]pyridazine] | 4.7 µM |
| FC(F)(F)c1nnc2ccc(N3CCN(CCc4ccccc4Cl)CC3)nn12 [Example 232] | 3.6 µM |
| N#Cc1ccc(CN2CCN(c3ccc4nnc(C(F)F)n4n3)CC2)cc1 [Example 237] | 5.3 µM |
| N#Cc1cccc(CN2CCN(c3ccc4nnc(C(F)F)n4n3)CC2)c1 [Example 238] | 5 µM |
| CC(F)(F)c1nnc2ccc(N3CCN(Cc4cccc(C#N)c4)CC3)nn12 [Example 242] | 7.4 µM |
| CC(F)(F)c1nnc2ccc(N3CCN(Cc4cccc(F)c4)CC3)nn12 [Example 243] | 3.7 µM |
| CCC(F)(F)c1nnc2ccc(N3CCN(Cc4cccc(C#N)c4)CC3)nn12 [Example 246] | 23 µM |
| Fc1ccc(CN2CCN(c3ccc4nnc(C(F)F)n4n3)CC2)c(F)c1 [Example 249] | 6.3 µM |

| SMILES | DC50 |
| --- | --- |
| Fc1ccc(CN2CCN(c3ccc4nnc(C(F)F)n4n3)CC2)cc1F [Example 250] | 4.9 µM |
| Fc1cc(F)cc(CN2CCN(c3ccc4nnc(C(F)F)n4n3)CC2)c1 [Example 251] | 9.3 µM |
| Fc1cccc(F)c1CN1CCN(c2ccc3nnc(C(F)F)n3n2)CC1 [Example 252] | 8.9 µM |
| COc1ccc(CN2CCN(c3ccc4nnc(C(F)F)n4n3)CC2)c(F)c1 [Example 253] | 3.7 µM |
| Fc1cccc(CN2CCN(c3ccc4nnc(C(F)F)n4n3)CC2)c1F [Example 256] | 7.4 µM |
| COc1cc(CN2CCN(c3ccc4nnc(C(F)F)n4n3)CC2)ccc1F [Example 257] | 9 µM |
| COc1ccc(F)c(CN2CCN(c3ccc4nnc(C(F)F)n4n3)CC2)c1 [Example 258] | 6.4 µM |
| Fc1ccc(F)c(CN2CCN(c3ccc4nnc(C(F)F)n4n3)CC2)c1 [Example 259] | 4.8 µM |
| N#Cc1cc(CN2CCN(c3ccc4nnc(C(F)F)n4n3)CC2)ccc1F [Example 260] | 5.6 µM |
| COc1ccc(CN2CCN(c3ccc4nnc(C(F)F)n4n3)CC2)cc1F [Example 261] | 7.9 µM |
| N#Cc1ccc(CN2CCN(c3ccc4nnc(C(F)F)n4n3)CC2)c(F)c1 [Example 262] | 25 µM |
| FC(F)c1nnc2ccc(N3CCN(Cc4c[nH]c5ccccc45)CC3)nn12 [Example 265] | 3.8 µM |
| Fc1cccc(CN2CC=C(c3ccc4nnc(C(F)(F)F)n4n3)CC2)c1 [Example 272, 6-[1-(3-fluorobenzyl)-1,2,3,6-tetrahydropyridin-4-yl]-3-(trifluoromethyl)-[1,2,4]triazolo[4,3-b]pyridazine] | 1.8 µM |
| Fc1ccc(-c2nc(N3CCN(c4ccc5nnc(C(F)(F)F)n5n4)CC3)no2)cc1 [Example 274] | 6.1 µM |
| FC(F)(F)c1nnc2ccc(N3CCN(c4noc(-c5ccccc5)n4)CC3)nn12 [Example 275] | 6 µM |

Further molecules by falling DC50, results first:

| DC50 | SMILES |
| --- | --- |
| 3.5 µM | CC1CN(c2ccc3nnc(C(F)(F)F)n3n2)C(C)CN1Cc1ccc(F)c(F)c1 (stereo not drawn) [Example 219] |
| 2.6 µM | CC1CN(c2ccc3nnc(C(F)(F)F)n3n2)C(C)CN1Cc1ccc(F)c(C#N)c1 (stereo not drawn) [Example 222] |
| 2.4 µM | FC(F)(F)c1nnc2ccc(N3CCN(Cc4c[nH]c5cccc(Cl)c45)CC3)nn12 [Example 282] |
| 2.1 µM | Fc1ccc(CCN2CCN(c3ccc4nnc(C(F)(F)F)n4n3)CC2)cc1 [Example 230] |
| 2.1 µM | FC(F)(F)c1nnc2ccc(N3CCN(CCc4ccc(Cl)cc4)CC3)nn12 [Example 231] |
| 2 µM | Fc1cccc(CCN2CCN(c3ccc4nnc(C(F)(F)F)n4n3)CC2)c1 [Example 234] |
| 2 µM | C[C@H](c1ccc(F)cc1)N1CCN(c2ccc3nnc(C(F)F)n3n2)CC1 [Example 269, 3-(difluoromethyl)-6-[4-[(1R)-1-(4-fluorophenyl)ethyl]piperazin-1-yl][1,2,4]triazolo[4,3-b]pyridazine] |
| 2 µM | N#Cc1ccc(-c2nc(N3CCN(c4ccc5nnc(C(F)(F)F)n5n4)CC3)no2)cc1 [Example 277] |
| 1.9 µM | Fc1ccccc1CCN1CCN(c2ccc3nnc(C(F)(F)F)n3n2)CC1 [Example 229, 6-[4-[2-(2-fluorophenyl)ethyl]piperazin-1-yl]-3-(trifluoromethyl)[1,2,4]triazolo[4,3-b]pyridazine] |
| 1.9 µM | N#Cc1ccc(CCN2CCN(c3ccc4nnc(C(F)(F)F)n4n3)CC2)cc1 [Example 235] |
| 1.8 µM | FC(F)c1nnc2ccc(N3CCN(Cc4cccc(C(F)(F)F)c4)CC3)nn12 [Example 255] |
| 1.8 µM | CC(C)(c1ccc(F)cc1)N1CCN(c2ccc3nnc(C(F)F)n3n2)CC1 [Example 271, 3-(difluoromethyl)-6-[4-[1-(4-fluorophenyl)-1-methylethyl]piperazin-1-yl][1,2,4]triazolo[4,3-b]pyridazine] |
| 1.7 µM | FC(F)c1nnc2ccc(N3CCN(Cc4cccc(Cl)c4)CC3)nn12 [Example 248] |
| 1.5 µM | FC(F)(F)c1nnc2ccc(N3CCN(CCc4cccc(Cl)c4)CC3)nn12 [Example 233] |
| 0.98 µM | Fc1ccc2c(CN3CCN(c4ccc5nnc(C(F)(F)F)n5n4)CC3)c[nH]c2c1 [Example 284] |
| 0.95 µM | FC(F)c1nnc2ccc(N3CCN(Cc4csc5ccccc45)CC3)nn12 [Example 264] |
| 0.91 µM | Fc1cccc(OC2CCN(c3ccc4nnc(C(F)F)n4n3)CC2)c1 [Example 268] |
| 0.85 µM | COc1cccc(OC2CCN(c3ccc4nnc(C(F)F)n4n3)CC2)c1 [Example 267] |
| 0.8 µM | FC(F)(F)c1nnc2ccc(N3CCN(Cc4c[nH]c5ccc(Br)cc45)CC3)nn12 [Example 281] |
| 0.78 µM | FC(F)(F)c1nnc2ccc(N3CCN(Cc4c[nH]c5ccc(Cl)cc45)CC3)nn12 [Example 280] |
| 0.78 µM | Fc1ccc2[nH]cc(CN3CCN(c4ccc5nnc(C(F)(F)F)n5n4)CC3)c2c1 [Example 283] |
| 0.65 µM | N#Cc1ccc2[nH]cc(CN3CCN(c4ccc5nnc(C(F)(F)F)n5n4)CC3)c2c1 [Example 278] |
| 0.63 µM | FC(F)c1nnc2ccc(N3CCC(c4c[nH]c5ccccc45)CC3)nn12 [Example 266, 3-(difluoromethyl)-6-[4-(1H-indol-3-yl)piperidin-1-yl][1,2,4]triazolo[4,3-b]pyridazine] |
